Data as given in patent publication US7342122B2, “Bisphosphonate complexes” (priority 2003, dated 2008).
Entries after “also recorded” stand apart in the source; their conditions may differ. One block for each compound: values may come before it.

Legend:
MDA-MB-231 = test: Cell growth inhibition, breast cancer cell line MDA-MB-231; type: cell-based; details: MDA-MB-231, breast cancer cell line
Description: (§1) KB cells were purchased from Human Science Research Resource Bank (Osaka, Japan). The cells were cultured in Earle's MEM (GIBCO BRL) containing 10% FBS (Bio Whittaker) at 37° C. under 5% CO2. After 24 hours the test compounds were added to the cells at the indicated concentrations. 72 hours later the cells were stained with tripan blue and counted manually. IC50 is calculated as the concentration (aqueous solution) of complex required to inhibit growth of cells by 50%.
(§2) In a similar fashion a representative number of examples of compounds of the invention were tested for their ability to inhibit the growth/proliferation of cell types representing a number of different cancers. The results are provided in Tables 4-13, below, which provide the Inhibition Constants (IC50, μM) for each compound across various cell lines.

DMS114 = test: Cell growth inhibition, lung cancer cell line DMS114; type: cell-based
Description: as §1, §2

NCI-H522 = test: Cell growth inhibition, lung cancer cell line NCI-H522; type: cell-based
Description: as §1, §2

SNB-75 = test: Cell growth inhibition, brain cancer cell line SNB-75; type: cell-based; details: SNB-75, brain cancer cell line
Description: as §1, §2

SF-295 = test: Cell growth inhibition, brain cancer cell line SF-295; type: cell-based; details: SF-295, brain cancer cell line
Description: as §1, §2

RXF-631L = test: Cell growth inhibition, renal cancer RXF-631L; type: cell-based
Description: as §1, §2

SF-268 = test: Cell growth inhibition, brain cancer cell line SF-268; type: cell-based; details: SF-268, brain cancer cell line
Description: as §1, §2

[1] = system: all cell types (cancer cell lines of Tables 4-12); test: Cell growth inhibition, mean over all cell types of the panel; type: cell-based; details: mean over all cell lines of Tables 4-12
Description: as §1, §2

PC-3 = test: Cell growth inhibition, prostatic cancer PC-3; type: cell-based; details: PC-3, prostatic cancer
Description: as §1, §2

MCF-7 = test: Cell growth inhibition, breast cancer cell line MCF-7; type: cell-based; details: MCF-7, breast cancer cell line
Description: as §1, §2

MKN1 = test: Cell growth inhibition, human stomach cancer MKN1; type: cell-based
Description: as §1, §2

DU-145 = test: Cell growth inhibition, prostatic cancer DU-145; type: cell-based, human; details: DU-145, prostatic cancer
Description: as §1, §2

DMS273 = test: Cell growth inhibition, lung cancer cell line DMS273; type: cell-based
Description: as §1, §2

OVCAR-3 = test: Cell growth inhibition, ovarian cancer cell line OVCAR-3; type: cell-based; details: OVCAR-3, ovarian cancer cell line
Description: as §1, §2

MKN45 = test: Cell growth inhibition, human stomach cancer MKN45; type: cell-based
Description: as §1, §2

HBC-4 = test: Cell growth inhibition, breast cancer cell line HBC-4; type: cell-based; details: HBC-4, breast cancer cell line
Description: as §1, §2

ACHN = test: Cell growth inhibition, renal cancer ACHN; type: cell-based
Description: as §1, §2

HCT-116 = test: Cell growth inhibition, colon cancer cell line HCT-116; type: cell-based; details: HCT-116, colon cancer cell line
Description: as §1, §2

NCI-H460 = test: Cell growth inhibition, lung cancer cell line NCI-H460; type: cell-based
Description: as §1, §2

OVCAR-4 = test: Cell growth inhibition, ovarian cancer cell line OVCAR-4; type: cell-based; details: OVCAR-4, ovarian cancer cell line
Description: as §1, §2

NCI-H23 = test: Cell growth inhibition, lung cancer cell line NCI-H23; type: cell-based
Description: as §1, §2

SK-OV-3 = test: Cell growth inhibition, ovarian cancer cell line SK-OV-3; type: cell-based; details: SK-OV-3, ovarian cancer cell line
Description: as §1, §2

HBC-5 = test: Cell growth inhibition, breast cancer cell line HBC-5; type: cell-based; details: HBC-5, breast cancer cell line
Description: as §1, §2

BSY-1 = test: Cell growth inhibition, breast cancer cell line BSY-1; type: cell-based; details: BSY-1, breast cancer cell line
Description: as §1, §2

SNB-78 = test: Cell growth inhibition, brain cancer cell line SNB-78; type: cell-based; details: SNB-78, brain cancer cell line
Description: as §1, §2

LOX-IMVI = test: Cell growth inhibition, melanoma cell line LOX-IMVI; type: cell-based
Description: as §1, §2

MKN7 = test: Cell growth inhibition, human stomach cancer MKN7; type: cell-based
Description: as §1, §2

NCI-H226 = test: Cell growth inhibition, lung cancer cell line NCI-H226; type: cell-based
Description: as §1, §2

A549 = test: Cell growth inhibition, lung cancer cell line A549; type: cell-based
Description: as §1, §2

KM-12 = test: Cell growth inhibition, colon cancer cell line KM-12; type: cell-based; details: KM-12, colon cancer cell line
Description: as §1, §2

HCC2998 = test: Cell growth inhibition, colon cancer cell line HCC2998; type: cell-based
Description: as §1, §2

OVCAR-8 = test: Cell growth inhibition, ovarian cancer cell line OVCAR-8; type: cell-based; details: OVCAR-8, ovarian cancer cell line
Description: as §1, §2

OVCAR-5 = test: Cell growth inhibition, ovarian cancer cell line OVCAR-5; type: cell-based; details: OVCAR-5, ovarian cancer cell line
Description: as §1, §2

KB cells = test: In vitro assay, cell growth inhibition (KB cells); type: cell-based; details: 72 hours
Description: as §1

MKN28 = test: Cell growth inhibition, human stomach cancer MKN28; type: cell-based
Description: as §1, §2

HT-29 = test: Cell growth inhibition, colon cancer cell line HT-29; type: cell-based; details: HT-29, colon cancer cell line
Description: as §1, §2

MKN74 = test: Cell growth inhibition, human stomach cancer MKN74; type: cell-based
Description: as §1, §2

SF-539 = test: Cell growth inhibition, brain cancer cell line SF-539; type: cell-based; details: SF-539, brain cancer cell line
Description: as §1, §2

U251 = test: Cell growth inhibition, brain cancer cell line U251; type: cell-based
Description: as §1, §2

St-4 = test: Cell growth inhibition, human stomach cancer St-4; type: cell-based; details: St-4, human stomach cancer
Description: as §1, §2

[2] = In vitro assay, adsorption of Pt complexes to hydroxyapatite; type: binding
Description: Each of a 5, 10, 15, 25, 35, and 100 mg sample of hydroxyapatite (Bio-Rad Macro-Prep Ceramic Hydroxyapatite, type I, 40 μm) was added to 2 ml of HEPES buffer at pD=7.8 and the resulting mixture was shaken for about 24 h at 37° C. Then, 100 μl of each complexes dissolved in HEPES buffer at pD=7.8 was added and the mixtures were shaken for 1.5 h at 37° C. All suspensions were filtered, and these solutions were measured by ^31P NMR (Varian VXR-300S) and Atomic Absorption Spectrometry (Hitachi Z-5710 AAS) of platinum or, for carboplatin, by ^1H NMR. Percentage adsorption to hydroxyapatite was calculated as follows. From NMR: Binding percentage/%=[(A−B)/A]×100 From AAS: Binding percentage/%=[(C−D)/C]×100 • A=the integration intensity of Pt(II) complex • B=the integration intensity of Pt(II) complex after reacted with hydroxyapatite • C=the concentration of Pt(II) complex • D=the concentration of Pt(II) complex after reacted with hydroxyapatite

log10 IC50 (M) (MDA-MB-231): -4.06
log10 IC50 (M) (DMS114): -4.72
log10 IC50 (M) (NCI-H522): -5.69
log10 IC50 (M) (SNB-75): -5.51
log10 IC50 (M) (SF-295): -4.46
log10 IC50 (M) (RXF-631L): -4.37
log10 IC50 (M) (SF-268): -4.26
log10 IC50 (M) [1]: -4.38
log10 IC50 (M) (PC-3): -4.04
log10 IC50 (M) (MCF-7): -4.19
log10 IC50 (M) (MKN1): -4.42
log10 IC50 (M) (DU-145): -4.66
log10 IC50 (M) (DMS273): -4.29
log10 IC50 (M) (OVCAR-3): -4.82
log10 IC50 (M) (MKN45): -4.14
log10 IC50 (M) (HBC-4): -4.27
log10 IC50 (M) (ACHN): -5.37
log10 IC50 (M) (HCT-116): -4.41
log10 IC50 (M) (NCI-H460): -4.46
log10 IC50 (M) (OVCAR-4): -4.42
log10 IC50 (M) (NCI-H23): -4.7
log10 IC50 (M) (SK-OV-3): -5.2
log10 IC50 (M) (HBC-5): -5.16
log10 IC50 (M) (BSY-1): -4.71
log10 IC50 (M) (SNB-78): -4.29
log10 IC50 (M) (LOX-IMVI): -4.08
SMILES: N.N.O.O.O.O.O.O.O.O=P([O-])([O-])OC1C(OP(=O)([O-])[O-])C(OP(=O)([O-])[O-])C(OP(=O)([O-])[O][Pt+])C(OP(=O)([O-])[O-])C1OP(=O)([O-])[O-].[Na+].[Na+].[Na+].[Na+].[Na+].[Na+].[Na+].[Na+].[Na+].[Na+] (centres unmarked) [Example 9, Pt(NH3)—IP6 Pt(NH3)2.IP6.10Na.7H2O]

log10 IC50 (M) (MDA-MB-231): -4.5
log10 IC50 (M) (DMS114): -4.89
log10 IC50 (M) (MKN7): -4.45
log10 IC50 (M) (NCI-H226): -4.83
log10 IC50 (M) (A549): -4.69
log10 IC50 (M) (SNB-75): -4.77
log10 IC50 (M) (KM-12): -4.77
log10 IC50 (M) (HCC2998): -4.81
log10 IC50 (M) (SF-295): -4.9
log10 IC50 (M) (RXF-631L): -4.89
log10 IC50 (M) (SF-268): -4.83
log10 IC50 (M) (OVCAR-8): -4.37
log10 IC50 (M) [1]: -4.54
log10 IC50 (M) (OVCAR-5): -4.79
log10 IC50 (M) (PC-3): -4.22
log10 IC50 (M) (MCF-7): -4.23
log10 IC50 (M) (DU-145): -4.33
IC50 (KB cells; concentration to inhibit growth of cells by 50%): 97 µM
log10 IC50 (M) (DMS273): -4.85
log10 IC50 (M) (OVCAR-3): -4.13
log10 IC50 (M) (MKN45): -4.68
log10 IC50 (M) (MKN28): -4.34
log10 IC50 (M) (HBC-4): -4.14
log10 IC50 (M) (ACHN): -4.2
log10 IC50 (M) (HCT-116): -4.37
log10 IC50 (M) (HT-29): -4.57
log10 IC50 (M) (NCI-H460): -5.23
log10 IC50 (M) (OVCAR-4): -4.19
log10 IC50 (M) (NCI-H23): -4.18
log10 IC50 (M) (SK-OV-3): -4.77
log10 IC50 (M) (HBC-5): -4.12
log10 IC50 (M) (BSY-1): -4.89
log10 IC50 (M) (MKN74): -4.75
log10 IC50 (M) (SNB-78): -4.56
log10 IC50 (M) (LOX-IMVI): -4.46
log10 IC50 (M) (SF-539): -4.82
log10 IC50 (M) (U251): -4.84
log10 IC50 (M) (St-4): -4.74
SMILES: [Cl-].[Cl-].c1cc[n+]2c(c1)-c1cccc[n+]1[Pt-2]21[NH2+]CC[NH+]1Cc1c2ccccc2cc2ccccc12 [Example 4, [Pt(bpy)(Aten)]Cl2]
KB cells remaining/growth in percent (Table 2, untitled) (KB cells; 1 μg/ml): 93.8%
KB cells remaining/growth in percent (Table 2, untitled) (KB cells; 3 μg/mL): 81.4%
KB cells remaining/growth in percent (Table 2, untitled) (KB cells; 10 μg/mL): 75.3%
KB cells remaining/growth in percent (Table 2, untitled) (KB cells; 30 μg/mL): 73.2%
KB cells remaining/growth in percent (Table 2, untitled) (KB cells; 100 μg/mL): 32.5%

SMILES: O=P1(O)CP(=O)(O)[O][Pt]2([NH][C@@H]3CCCC[C@H]3[NH]2)[O]1 (some centres unmarked) [Example 2, Pt(dach)(MDP)]
adsorption percentage to hydroxyapatite ([2]; 100 mg of hydroxyapatite, HEPES buffer pD=7.8, 1.5 h, 37° C.): 79.6%
adsorption to hydroxyapatite, comparison in words ([2]; FIGS. 1 and 2, 31P NMR, 1H NMR, AAS): adsorbed slightly more than cis-Pt(NH3)2(MDP); also recorded: adsorbed quite significantly more than carboplatin
